# PMC10223120, “α-Viniferin-Induced Apoptosis through Downregulation of SIRT1 in Non-Small Cell Lung Cancer Cells” (Pharmaceuticals, 2023)
# How the values were obtained:
# human SIRT1 enzyme = tested on: human SIRT1 enzyme; set-up: method as in doi:10.1177/1934578X1801301130; conditions: cited from earlier work
# NCI-H460 cells [1] = experiment: MTT cell viability assay, NCI-H460 cells; type: cell-based, human
# Experimental: (§1) The Bioresource Collection and Research Center (BCRC) in Hsinchu, Taiwan provided the NCI-H460 and A549 cell lines, which were cultured in DMEM supplemented with 10% FBS, 100 U/mL penicillin A, and 100 U/mL streptomycin. These cells were kept at a temperature of 37 °C with 5% CO2 and a humidified air environment.
# (§2) To investigate the impact of α-viniferin (0–50 μM), ε-viniferin (0–50 μM), and signal transduction inhibitors (20 μM PD98059, 10 μM SB431542, 20 μM SP600125, 20 μΜ LY294002, 10 μM BIRB796, or 10 μM GO6976) on the viability of NCI-H460 or A549 cells were investigated using MTT assay. NCI-H460 or A549 cells were treated with various concentrations of α-viniferin, ε-viniferin, and signal transduction inhibitors and were incubated for 24, 48, or 72 h. Following incubation, 5 mg/mL MTT solution in phosphate-buffered saline (PBS) was added to each well, and the plate was further incubated for 4 h at 37 °C. Following this, the medium was aspirated, and DMSO was utilized to dissolve the MTT-formazan crystals. Finally, the solution was analyzed using a microplate reader at a wavelength of 540 nm.
# NSCLC cells = tested on: NSCLC cells; set-up: method as in PMID 35684095; conditions: cited from earlier work
# [2] = Serum AST, CPK, LDH and creatinine in xenograft-bearing mice; type: in vivo, BALB/c nude mice; conditions: 5 mg/kg i.p., five times every week, four weeks
# Experimental: (§3) The male BALB/c nude mice utilized in this investigation were obtained from the National Laboratory Animal Breeding and Research Center situated in Taiwan. All animal experimentation procedures were conducted in accordance with National Tsinghua University’s Institutional Animal Care and Use Committee Guidelines (Protocol No. 107049). For this study, the hind leg of five-week-old nude mice was subcutaneously implanted with 1 × 10^6 NCI-H460 cells. Treatment was initiated only after the tumors had grown to a volume of 100–200 mm^3. Subsequently, the nude mice with NCI-H460-cell xenografts were randomly allocated into two groups: experimental and control, each comprising five mice. The experimental group was administered 5 mg/kg α-viniferin through intraperitoneal injection five times every week, while the control group was administered PBS. After four weeks, the mice were euthanized. Tumor weight, vimentin expression, histopathological changes and apoptosis in the tumor section were evaluated using immunohistochemistry (IHC) staining, hematoxylin and eosin staining, and TUNEL assay. The quantification of AST, CPK, LDH, and creatinine levels was carried out following previously described procedures. Briefly, AST, LDH, CPK, and creatinine levels were quantified using commercial kits (Wako Pure Chemical Industries, Osaka, Japan).
# NCI-H460 cells [3] = experiment: Annexin V/7-AAD double staining, flow cytometry; type: cell-based, human; conditions: 24 h, control 5.3%
# Experimental: To investigate the molecular mechanism by which α-viniferin affects NCI-H460 cells, the presence of apoptotic and necrotic cells was analyzed using double staining with annexin V and 7-aminoactinomycin D (7-AAD). Annexin V, which binds to phosphatidylserine (PS), is used as a marker of early-stage apoptosis. The 7-ADD is a fluorescent DNA dye that is excluded from viable cells with intact membranes but can penetrate the plasma membrane of apoptotic and necrotic cells. Double staining with both annexin V and 7-AAD can differentiate between cells in different stages of apoptosis and necrosis. Specifically, cells that are annexin V+/7-AAD- are in early apoptosis, cells that are annexin V+/7-AAD+ are in late apoptosis, and cells that are annexin V-/7-AAD+ are in necrosis. Cells that are annexin V-/7-AAD- are considered viable. […] These findings implied dose-dependent induction of apoptosis by α-viniferin in NCI-H460 cells. The mechanism behind α-viniferin-induced apoptosis in NCI-H460 cells merits further investigation.
# The annexin V and 7-ADD double staining was utilized to detect apoptotic and necrotic cells. NCI-H460 cells were treated with α-viniferin at various concentrations (0, 5, 10, 20, and 30 μM) for 24 h. Following treatment, the cells were collected by trypsinization and suspended in a warm medium. The cells in a suspension were centrifuged at 2000× g for 5 min, and the resulting supernatant was removed, leaving the cell pellets. The pellets were subsequently resuspended in 200 µL of PBS and were fixed by adding […]. Next, the cell pellets that had been fixed were resuspended in 500 µL of 1 × annexin V-FITC Binding Buffer, to which 5 µL each of annexin V-FITC and 7-AAD staining reagents were added. The samples were then vortexed gently and incubated for 15 min at 4 °C in the dark. Finally, the samples were analyzed using a BD FACScan™ flow cytometer.
# A549 lung cancer cells = tested on: A549 lung cancer cells; set-up: method as in PMID 34728247; conditions: cited from earlier work
# NCI-H460 cells [4] = experiment: Western blot of apoptosis-related proteins; type: cell-based, human; conditions: 10, 15, 20, 30 μM, 24 h
# Experimental: The western blot analysis was conducted to check the expression levels of cleaved caspase-3, cleaved PARP, SIRT1, vimentin, and AKT phosphorylation in NCI-H460 cells after treatment with α-viniferin at various concentrations (0, 10, 15, 20, and 30 μM) for 24 h. After treatment, the cells in a 10-cm plate were lysed in an ice-cold lysis buffer, containing protease and […] inhibitors. The Bio-Rad protein assay kit (Bio-Rad Laboratories, Hercules, CA, USA) was utilized to measure the protein concentration in each lysate. Equal amounts of protein (50 μg) were loaded onto each lane, separated using sodium dodecyl sulfate-polyacrylamide gel electrophoresis (SDS-PAGE), and subsequently transferred onto polyvinylidene fluoride (PVDF) membranes. First, the membranes were blocked using 1% BSA in PBS at room temperature for 1 h. Then, the membranes incubated with primary antibodies against full length caspase-3, activated caspase-3, full length PARP, cleaved PARP, SIRT1, vimentin, and AKT phosphorylation, and followed by secondary antibodies conjugated with horseradish peroxidase were added to the samples. Finally, the immunoreactive bands were visualized using an enhanced chemiluminescence (ECL) detection system.
# [5] = tested on: osteosarcoma cells (U2OS); set-up: method as in PMID 34728247; conditions: cited from earlier work
# NCI-H460-cell xenografts = experiment: In vivo xenograft tumor growth experiment; set-up: species or system BALB/c nude mice
# Experimental: as §3
# A549 = tested on: A549; set-up: method as in PMID 34728247; conditions: A549 cells; cited from earlier work
# NCI-H460 cells [6] = experiment: Immunofluorescence assay of AIF localization (Hoechst 33258 nuclear stain); type: cell-based, human; conditions: 5, 10, 15, 20, 30 μM, 24 h
# Experimental: The immunofluorescence assay was conducted following the method described in a previous study to detect the localization of AIF in NCI-H460 cells after treatment with α-viniferin at various concentrations (0, 5, 10, 15, 20, and 30 μM) for 24 h. After treatment, the cells in a 6-well plate were washed with PBS, and fixed immediately with 4% formaldehyde at room temperature for 15 min. Then, NCI-H460 cells were treated with 0.1% Triton X-100 in PBS at room temperature for 15 min to achieve permeabilization. After that, NCI-H460 cells were incubated with anti-AIF primary antibodies at 4 °C for 24 h, followed by incubation with secondary antibodies conjugated with fluorescein isothiocyanate at 37 °C for 1 h. To stain the cell nuclei, NCI-H460 cells were treated with a solution containing […] Hoechst 33,258 for 30 min. After washing the cells with PBS, they were mounted onto a glass slide for visualization. Confocal laser scanning microscopy was employed to capture the images. The mean fluorescence intensity, which represented the protein level, was analyzed using the Image J software.
# osteosarcoma cells (HOS) = tested on: osteosarcoma cells (HOS); set-up: method as in PMID 34728247; conditions: cited from earlier work
# A549 cells = experiment: MTT cell viability assay, A549 cells; type: cell-based, human; conditions: low doses (20 μM)
# Experimental: as §1, §2
# [7] = 5 mg/kg i.p., five times every week, four weeks, compared with control
compound,measurement,setting,value
Oc1ccc([C@H]2Oc3cc(O)cc(/C=C/c4ccc5c(c4)[C@@H](c4cc(O)cc6c4[C@H](c4cc(O)cc(O)c4)[C@@H](c4ccc(O)cc4)O6)[C@H](c4ccc(O)cc4)O5)c3[C@@H]2c2cc(O)cc(O)c2)cc1 [(−)-vitisin B],activity of the human SIRT1 enzyme,human SIRT1 enzyme,inhibit the activity
"O=c1cc(N2CCOCC2)oc2c(-c3ccccc3)cccc12 [LY294002, reference compound]",cell viability,"NCI-H460 cells [1]; inhibitor 20 μM, 24 h",decreased cell viability
Oc1ccc([C@H]2c3c(O)cc(O)cc3[C@H]3c4c(cc(O)cc4[C@@H]2c2cc(/C=C/c4cc(O)cc5c4[C@H](c4cc(O)cc(O)c4)[C@@H](c4ccc(O)cc4)O5)ccc2O)O[C@@H]3c2ccc(O)cc2)cc1 [vitisin A],activity of the human SIRT1 enzyme,human SIRT1 enzyme,inhibit the activity
"Oc1ccc([C@H]2Oc3cc(O)cc4c3[C@@H]2c2cc(O)cc3c2[C@@H](c2cc(O)cc5c2[C@@H]4[C@H](c2ccc(O)cc2)O5)[C@H](c2ccc(O)cc2)O3)cc1 [α-viniferin, α-Viniferin]",TGF-induced vimentin expression,NSCLC cells,inhibit TGF-induced vimentin expression
same,"liver or kidney function (serum AST, CPK, LDH, creatinine)",[2],no negative impact
same,apoptotic cells (early + late apoptotic cells),NCI-H460 cells [3]; 5 μM,7.0%
same,apoptotic cells (early + late apoptotic cells),NCI-H460 cells [3]; 10 μM,8.3%
same,apoptotic cells (early + late apoptotic cells),NCI-H460 cells [3]; 20 μM,22.3%
same,apoptotic cells (early + late apoptotic cells),NCI-H460 cells [3]; 30 μM,35.0%
same,epithelial mesenchymal transition (EMT),A549 lung cancer cells,inhibit epithelial mesenchymal transition
same,protein expression level of SIRT1,NCI-H460 cells [4],decreased the protein expression levels
same,protein expression level of vimentin,NCI-H460 cells [4],decreased the protein expression levels
same,protein expression of activated caspase-3,NCI-H460 cells [4],increased the protein expression
same,protein expression of cleaved PARP,NCI-H460 cells [4],increased the protein expression
same,AKT phosphorylation,NCI-H460 cells [4]; normalized to AKT,decreased the protein expression levels
same,apoptosis,[5],induce apoptosis
same,apoptotic cells in tumor tissue (TUNEL staining),"NCI-H460-cell xenografts; 5 mg/kg i.p., five times every week, four weeks",increased numbers of apoptotic cells
same,tumor volume,NCI-H460-cell xenografts; [7],more significant reduction
same,tumor weight,NCI-H460-cell xenografts; [7],more significant reduction
same,vimentin expression in tumor (IHC),NCI-H460-cell xenografts; [7],reduced
same,tumor growth,"NCI-H460-cell xenografts; 5 mg/kg, i.p., five days/week",suppression of tumor growth
same,apoptosis,A549,induce apoptosis
same,AIF translocation to the nucleus,NCI-H460 cells [6],translocated to the nucleus
same,DNA fragmentation,NCI-H460 cells [6],caused DNA fragmentation
same,cell viability,"NCI-H460 cells [1]; low doses 10–20 μM, 24, 48, 72 h",inhibited cell viability in a dose- and time-dependent manner
same,apoptosis,osteosarcoma cells (HOS),induce apoptosis
"COc1cccc(-c2cc(=O)c3ccccc3o2)c1N [PD98059, reference compound]",cell viability,"NCI-H460 cells [1]; inhibitor 20 μM, 24 h",decreased cell viability
(+)-hopeaphenol,activity of the human SIRT1 enzyme,human SIRT1 enzyme,inhibit the activity
Oc1ccc(/C=C/c2cc(O)cc3c2[C@@H](c2cc(O)cc(O)c2)[C@H](c2ccc(O)cc2)O3)cc1 [ε-viniferin],cell viability,A549 cells,inhibited A549 cell viability
same,anti-proliferative effect,NCI-H460 cells [1]; 20 μM,did not exhibit potent anti-proliferative effects
same,anti-proliferative effect,NCI-H460 cells [1]; higher concentrations (above 20 μM),did demonstrate such effects
